Laboratory results: publication PMC3863987 (Journal of medicinal chemistry, 2012)

Assays:
recombinant P. vivax NMT = target: T1, recombinant P. vivax NMT (Plasmodium vivax, UniProt A5K1A2); assay: Fluorogenic NMT enzyme assay, P. vivax NMT; format: biochemical
T1 sequence (A5K1A2 1-410): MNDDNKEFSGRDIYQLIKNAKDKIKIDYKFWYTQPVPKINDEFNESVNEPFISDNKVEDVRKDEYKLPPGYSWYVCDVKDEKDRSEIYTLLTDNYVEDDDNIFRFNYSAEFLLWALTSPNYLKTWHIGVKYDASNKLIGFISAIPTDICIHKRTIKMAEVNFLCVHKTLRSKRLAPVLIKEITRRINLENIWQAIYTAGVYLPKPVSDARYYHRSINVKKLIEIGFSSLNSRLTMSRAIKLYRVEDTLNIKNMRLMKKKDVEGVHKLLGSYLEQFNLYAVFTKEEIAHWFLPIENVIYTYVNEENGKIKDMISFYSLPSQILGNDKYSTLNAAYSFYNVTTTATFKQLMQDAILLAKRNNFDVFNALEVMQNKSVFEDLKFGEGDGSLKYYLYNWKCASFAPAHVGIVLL

Solubility = format: physicochemical; settings: ethyl ester in position 3 in place of the aliphatic chain
[1] = substrate: C[C@H](NC(=O)[C@H](CC(=O)O)NC(=O)[C@H](CCCCN)NC(=O)[C@@H]1CCCN1C(=O)[C@H](CCCCN)NC(=O)[C@H](CO)NC(=O)[C@H](CCCCN)NC(=O)[C@H](CC(N)=O)NC(=O)[C@H](CO)NC(=O)CN)C(=O)N[C@@H](CO)C(=O)N[C@@H](CCC(N)=O)C(=O)N[C@@H](CCCNC(=N)N)C(=O)N[C@@H](CCCNC(=N)N)C(=O)N[C@@H](CCCNC(=N)N)C(N)=O; assay: Fluorogenic NMT enzyme assay, P. vivax NMT; format: biochemical, Plasmodium vivax; settings: other: peptide substrate for the PvNMT assay, in assay conditions

With `CCCCc1c(C)nc2ccc(OC)cc2c1SCCC#N.Cl` [Compound 1, 3-butyl-4-((2-cyanoethyl)thio)-6-methoxy-2-methyl-quinoline] as the molecule, how does the “inhibitory activity against PvNMT (in words)” value (recombinant P. vivax NMT) read?
Its value is “micromolar IC50”.

Which “solubility (in words)” value (Solubility) does the source give for `CCOC(=O)c1cnc2ccc(OC)cc2c1SCCC#N` [Compound 7] here?
Its value is “greatly improved solubility”.

Which “inhibitory activity against PvNMT (in words)” value (recombinant P. vivax NMT) does the source give for `CCOC(=O)c1c(C)nc2ccccc2c1NCC#N.Cl` [Compound 17] here?
Its value is “complete loss of activity”.

B1: recombinant P. vivax NMT (Plasmodium vivax Sal-1) (protein)
chain: MNDDNKEFSGRDIYQLIKNAKDKIKIDYKFWYTQPVPKINDEFNESVNEPFISDNKVEDVRKDEYKLPPGYSWYVCDVKDEKDRSEIYTLLTDNYVEDDDNIFRFNYSAEFLLWALTSPNYLKTWHIGVKYDASNKLIGFISAIPTDICIHKRTIKMAEVNFLCVHKTLRSKRLAPVLIKEITRRINLENIWQAIYTAGVYLPKPVSDARYYHRSINVKKLIEIGFSSLNSRLTMSRAIKLYRVEDTLNIKNMRLMKKKDVEGVHKLLGSYLEQFNLYAVFTKEEIAHWFLPIENVIYTYVNEENGKIKDMISFYSLPSQILGNDKYSTLNAAYSFYNVTTTATFKQLMQDAILLAKRNNFDVFNALEVMQNKSVFEDLKFGEGDGSLKYYLYNWKCASFAPAHVGIVLL
For B1, which Km [1] is on record?
The Km was 5.71 ± 0.6 µM.
